This is an account of results in paper PMC2670829 (BMC Pharmacology, 2009).

The subject of data set [1] is subcutaneous Tsc2^-/- tumors (NTC/T2null cells). Description: Subcutaneous Tsc2-/- tumor model in nude mice, atorvastatin, doxycycline and rapamycin study. To be noted: for Efficacy on tumor growth and survival, in words / Median survival: doxycycline 10 mg/kg IP 5 days per week, rapamycin 8 mg/kg IP 3 days per week; for Median survival: time to tumor volume ~3000 mm^3, atorvastatin 20 mg/kg IP, start at ~50 mm^3.
Experimental: (§1) Nude mice (strain CD-1nuBR, up to 6–8 weeks old) were obtained from Charles River Laboratories, Inc. (Wilmington, Massachusetts) and injected subcutaneously on the dorsal flank with 2.5 million NTC/T2null (Tsc2^-/-, Trp53^-/-) cells. As soon as tumors became visible, they were measured Monday through Friday using calipers. Tumor volumes were calculated using the formula: length × width × width × 0.5 [43]. All mice were euthanized once tumors reached ~3000 mm^3 in accordance with institutional animal care guidelines. Please note that survival analysis is done using time to tumor volume of ~3000 mm^3, because this is when animals are euthanized. […] Statistical comparison of tumor volume measurements between groups is done on the last day that relevant groups had at least four tumor measurements.
A cohort of 48 CD-1 nude mice was injected with NTC/T2null (Tsc2^-/-, Trp53^-/-) cells.
All drug treatments started when tumors reached a volume of ~50 mm^3 (day 1 of treatment), regardless of treatment schedule, and animals were euthanized when tumors reached a volume of ~3000 mm^3. If a volume of 40 mm^3 was reached on Thursday or Friday, treatment began that day. Otherwise, treatment was started on the day tumor volume was ≥50 mm^3.
Mice being treated with doxycycline were treated daily Monday through Friday with 200 μl of a 1.5 mg/ml (10 mg/kg) IP injection. […] All drug doses were calculated based on an average weight of 30 g per mouse. […] Doxycycline powder was obtained from Sigma-Aldrich Co. (St. Louis, MO) and was diluted in sterile PBS.

Data set [2] has as its system kidney cystadenomas in Tsc2^+/- mice. As to conditions: cited from earlier work; for Percent decrease in tumor score per kidney with treatment / Tumor score per kidney (ave. ± Std. Err.): analysis at 12 months, ref Messina et al., 2007; for Tumor score per kidney (ave. ± Std. Err.): CCI-779 8 mg/kg per day, 5 days/week.
The conditions of data set [3]: in words.
For data set [4] the following is noted: no reference given; cited from earlier work.
Data set [5] has as its system kidney cystadenomas in Tsc2^+/- mice. Description: Kidney tumor (cystadenoma) score by quantitative histopathology in Tsc2+/- mice. In kind it is in vivo, mouse. To be noted: for Tumor score per kidney (ave. ± Std. Err.): daily IP treatment at 6–7 and 12–13 months (rapamycin 8 mg/kg, IFN-g 20,000 IU), weekly rapamycin 16 mg/kg at 7–12 months. The protocol:
The Tsc2^+/- mouse is heterozygous for a deletion of exons 1–2 as previously described. The Tsc2^+/- cohort used in this experiment was obtained by crossing these Tsc2^+/- mice with wild-type C57BL/6 mice. In order to avoid bias due to strain variation, sibling littermates were used as controls. Tsc2^+/- mice were assigned to one of three cohorts: rapamycin 8 mg/kg IP, rapamycin 8 mg/kg plus IFN-g 20,000 units IP, and untreated. All mice receiving drug therapy were treated in three consecutive parts: In part one, mice were treated daily (5 days/week, Monday through Friday) for one month (6 months ≤ age < 7 months) with their assigned treatments by intraperitoneal injection (IP). In part two, all mice in both the rapamycin and rapamycin plus IFN-g cohorts stopped their assigned daily treatment and started a weekly 16 mg/kg maintenance dose of rapamycin for five months (7 months ≤ age < 12 months). In the final part, all mice restarted the same treatment they received from 6–7 months of age for one final month (see Table 1). The two month-long periods of daily rapamycin treatment before and after the maintenance treatment were included so that we can compare the results of this study with our previous preclinical studies that also include a total of two months of daily treatment without the weekly maintenance treatment phase. All mice were euthanized at 13 months of age according to institutional animal care guidelines. We evaluated kidney disease at 13 months in this experiment instead of 12 months in prior studies because kidney disease severity is likely to be higher in older mice, and we reasoned that this may allow us to better detect small differences between treatment groups. The severity of kidney disease was determined in all animals using quantitative histopathology as described below.
Rapamycin powder was obtained from LC Laboratories (Woburn, MA) and a 20 mg/ml stock of rapamycin was made in ethanol (stored at -20°C for up to one week). The stock solution was diluted to 1.2 mg/ml in vehicle (0.25% PEG, 0.25% Tween-80) for the 8 mg/kg dose and diluted to 2.4 mg/ml in vehicle for the 16 mg/kg dose. Murine IFN-g (R&D Systems, Minneapolis, MN) was diluted to 100,000 units/ml in sterile phosphate buffered saline (PBS) containing 0.1% mouse serum albumin (Sigma-Aldrich, Inc., St. Louis, MO) and stored at 4°C. […]
For histological quantification of kidney cystadenomas, each kidney was fixed and sliced at 1 mm intervals. […] All slides were coded to keep scoring blinded, and all cystadenomas were counted, measured, and scored according to the scale shown in Table 2 by two blinded researchers (CW and AN). Cystadenomas that extended into more than one 1 mm kidney slice were counted only once and scored according to the maximum diameter. […]

Data set [6] concerns subcutaneous Tsc2^-/- tumors (NTC/T2null cells). As to the kind of experiment: Subcutaneous Tsc2-/- tumor model in nude mice, sorafenib and rapamycin study. To be noted: rapamycin 8 mg/kg IP, sorafenib 60 mg/kg gavage, 5 days per week.
Experimental: as §1
Two mice were excluded from the analyses. […] All drug doses were calculated based on an average weight of 30 g per mouse.
A further data set is described as follows: in vivo. As to conditions: mouse, intraperitoneal, 8 mg/kg.
For data set [7] the following is noted: mouse, in vivo. As to the method:
Animal behavior and health were monitored daily, and animals were weighed at the start of the study and at the time of necropsy. […] All mice from rapamycin treated cohorts were euthanized 24 hours after the last rapamycin treatment upon reaching the endpoint tumor volume. Upon sacrifice, whole blood and tumor were harvested for drug level testing.

Setting [8] is: mean ± standard error, rapamycin 8 mg/kg 3 days per week, atorvastatin 20 mg/kg, doxycycline 10 mg/kg 5 days per week, IP.
The mark [9] stands for this setting: 8 mg/kg daily × 2 months, total 9.6 mg per mouse, ref Messina et al. 2007.

Several values for one entry are separate records, joined by “and”; a condition that tells them apart may be missing. Equal entries are not always repeated. Where two headings read alike, the source gives them in different places. Marks after values point to notes of the source that are not given here.

Turning to `CC(C)c1c(C(=O)Nc2ccccc2)c(-c2ccccc2)c(-c2ccc(F)cc2)n1CC[C@@H](O)C[C@@H](O)CC(=O)O` [Atorvastatin], in data set [1] (atorvastatin 20 mg/kg), the “Efficacy on tumor growth and survival, in words” value (shortened to “Efficacy”) is on record as “did not reduce tumor growth or improve survival as a single agent”. The “Day 26, average tumor volume” value in data set [1] (setting [8]) is on record as 1931 ± 298 mm^3. This compound yielded a Median survival in data set [1] of 32.5 days.

For the compound `CO[C@H]1C[C@@H]2CC[C@@H](C)[C@@](O)(O2)C(=O)C(=O)N2CCCC[C@H]2C(=O)O[C@H]([C@H](C)C[C@@H]2CC[C@@H](OC(=O)C(C)(CO)CO)[C@H](OC)C2)CC(=O)[C@H](C)/C=C(\C)[C@@H](O)[C@@H](OC)C(=O)[C@H](C)C[C@H](C)/C=C/C=C/C=C/1C` [CCI-779, temsirolimus], the “% Reduction in kidney tumors (kidney tumor number)” value in data set [2] (4 mg/kg 3 times a week × 3 months, total 4.32 mg per mouse, ref Lee et al. 2005) was 84% and 83.6%**; in data set [2] (setting [9]), 64%. Also, in data set [2] (setting [9]), the “% Reduction in kidney tumors (kidney tumor score)” value is recorded as 63%*. Besides, the “Percent decrease in tumor score per kidney with treatment” value is listed as 39.7% in data set [2] (CCI-779 8 mg/kg per day at 6–8 months) and 64.4% in data set [2] (CCI-779 8 mg/kg per day at 10–12 months, 8 mg/kg/day). The “Tumor score per kidney (ave. ± Std. Err.)” value in data set [2] (at 6–8 months) was 6.00 ± 1.01; in data set [2] (at 10–12 months) it was 3.54 ± 0.76.

On to `C[C@H]1c2cccc(O)c2C(=O)C2=C(O)[C@]3(O)C(=O)C(C(N)=O)=C(O)[C@@H](N(C)C)[C@@H]3[C@@H](O)[C@@H]21` [Doxycycline], for which, in data set [3], the “Effect on the metabolism of rapamycin (rapamycin levels in combination cohorts)” value is listed as “did not significantly affect the metabolism of rapamycin”. The “Efficacy” value in data set [1] (atorvastatin 20 mg/kg) was “not effective as either a single agent or in combination with rapamycin”. In data set [1] (setting [8]), the “Day 26, average tumor volume” value is recorded as 1749 ± 352 mm^3. Also, the Median survival in data set [1] is recorded as 28 days.

For `CO[C@H]1C[C@@H]2CC[C@@H](C)[C@@](O)(O2)C(=O)C(=O)N2CCCC[C@H]2C(=O)O[C@H]([C@H](C)C[C@@H]2CC[C@@H](O)[C@H](OC)C2)CC(=O)[C@H](C)/C=C(\C)[C@@H](O)[C@@H](OC)C(=O)[C@H](C)C[C@H](C)/C=C/C=C/C=C/1C` [Rapamycin], the “Trough levels for standard rapamycin dosing in humans” value in data set [4] is 3 to 20 ng/mL. Besides, in data set [5] (13 months, in words, no statistics), the “Score of kidney lesion subtypes (cystic, pre-papillary, papillary, solid)” value is on record as “reduced the score of all subtypes of kidney lesions”. For the same compound, in data set [5] (analysis at 13 months), the “Tumor score per kidney (ave. ± Std. Err.)” value is recorded as 0.83 ± .018. Further, the “Tumor score per kidney (ave. ± Std. Err.)” value in data set [5] (analysis at 13 months, listed as rapamycin) is 0.83 ± 0.18. Further, the “Percent decrease in tumor score per kidney with treatment” value in data set [5] (vs untreated, analysis at 13 months, daily treatment 6–7 and 12–13 months, weekly rapamycin 16 mg/kg 7–12 months) amounted to 94.5%. Moreover, in data set [1] (setting [8]), the “Day 26, average tumor volume” value was found to be 544 ± 110 mm^3 and the “Day 42, average tumor volume” value worked out at 1784 ± 643 mm^3. In data set [1], this compound returned a Median survival of 41.5 days. Besides, in data set [6] (mean ± standard error), the “Day 16, average tumor volume” value was found to be 284 ± 52 mm^3; the “Day 43, average tumor volume” value was found to be 2499 ± 222 mm^3; the “Day 44, average tumor volume” value is given as 2607 ± 247 mm^3. Also, the Median survival in data set [6] (time to tumor volume ~3000 mm^3, start at ~150 mm^3) stood at 46 days. In “in vivo” (CD-1 nude, tumor), the concentration at 24 h was 258 ± 91.6 ng/mL. The concentration at 24 h in the data set “in vivo” (nude, whole blood) worked out at 42.9 ± 24.7 ng/mL. Further, in data set [7], the “Weight at Necropsy” value is given as 35.6 ± 0.6 g; the “Weight at Start” value was 36.0 ± 0.6 g; the Weight gain is listed as -0.4 ± 0.6 g; the “Weight gain, in words” value is “failed to gain weight”.

With `CNC(=O)c1cc(Oc2ccc(NC(=O)Nc3ccc(Cl)c(C(F)(F)F)c3)cc2)ccn1` [Sorafenib], in data set [3], the “Effect on the metabolism of rapamycin (rapamycin levels in combination cohorts)” value was “did not significantly affect the metabolism of rapamycin”. Also, the “Day 16, average tumor volume” value in data set [6] (mean ± standard error) is 2209 ± 499 mm^3. Besides, the “Efficacy” value in data set [6] was “not effective”.
